In patent publication US11634381B2, “RUNX2 transcription factor inhibitors and uses thereof” (University of Maryland, Baltimore, priority 2015, dated 2023):

Key:
[1] = system: non-malignant cells (MCF10A, IEC-6, GES-1, C2C12); assay: Cell growth assay in non-malignant cells; type: cell-based, human, rat, murine; conditions: 0˜100 μM, 24˜72 hrs
Method: Cells wereplated on 96-well (30,000 cells/well) or 24-well plates (50,000 cells/well). After CADD522 (0˜100 μM) addition, cells were incubated for 24˜72 hrs. Cells were stained with crystal violet (0.5% in Methanol:Acetic Acid=3:1) and washed with PBS. Crystal violet was solubilized in DMSO and measured in a microplate reader at 592 nm.

TAZ = assay: Nuclear TAZ levels by Western blot; type: cell-based, human
Method: (§1) MCF7 cells were grown to subconfluence in the presence or absence of doxycycline for 72 hr in full media as described above. Cells were then treated in minimal DMEM (Sigma, D5030) containing 0.1% BSA, 1% L-glutamine, 2% Tet-Approved FBS, and 1 mM glucose for 16 hours followed by treatment with 2 ng/mL TGFβ (R&D Systems, 240-B-002) for 48 hours in the presence or absence of EGTA to examine sE-Cad expression levels, TAZ localization, and HER2 expression levels. Cells were washed with PBS and scraped from plates. Cytoplasmic and nuclear lysates were obtained using the Low/High Salt extraction method. Cytoplasmic extracts were obtained by resuspending cells in NP40 containing Hypotonic Buffer (10 mM HEPES pH 7.4, 1.5 mM MgCl2, 10 mM KCI, 0.5% NP40) followed by a 30 min incubation on ice and centrifiugation. Nuclear extracts were obtained by resuspending the nuclear pellet in an equal volume of low salt buffer (10 mM HEPES, 25% glycerol, 1.5 mM MgCl2, 20 mM KCI, 0.2 mM EDTA) followed by high salt buffer (10 mM HEPES, 25% glycerol, 1.5 mM MgCl2, 800 mM KCl, 0.2 mM EDTA) followed by vortexing, 30 min incubation on ice, another vortex, and centrifugation. Samples were resolved on 4-12% Bis-Tris polyacrylamide gradient gels (Invitrogen) and transferred to PVDF membranes (Millipore). Membranes were probed with antibodies listed below followed by development with enhanced ECL (Millipore). […] Protein levels were normalized to actin and quantified using NIH Image-J software.
(§2) MCF7 Tet.OFF cells were pretreated in the absence or presence of doxycycline for 3 days. […] Nuclear and cytoplasmic extracts were obtained using High/Low salt extraction method and protein levels analyzed by Western blot (see above).

sE-Cad = sE-Cad production by Western blot; type: cell-based, human
Method: as §1, with “(Millipore).” for “(Millipore). Membranes were probed with antibodies listed below followed by development with enhanced ECL (Millipore).”
To assay for sE-Cad levels, MCF7 Tet.OFF cells were grown in the absence or presence of doxycycline for 3 days and then transfected with TAZ siRNA #1 using Lipofectamine-2000. […] After 72 hours, nuclear and cytoplasmic extracts were obtained using the High/Low salt extraction method described above and analyzed for sE-Cad, TAZ, and RUNX2. Protein levels were normalized to actin and quantified using NIH Image-J software.
as §2

BC cells = assay: Glucose consumption and lactate production; type: cell-based, human
Method: For measurement of glucose level, cells (100,000/well) were plated in 24-well plates and incubated overnight. Cells were treated with compound 1 (50 μM) in phenol red-free growth medium and further incubated for 6 hrs or 24 hrs. The culture medium was collected and filtered through a 0.22 μm pore membrane. Glucose level in the medium was measured using Amplex Red Glucose/Glucose Oxidase Assay Kit (Invitrogen) as per manufacturer's instructions. For lactate level, cells were treated with compound 1 for 24 hrs, and the medium was washed and replaced with HEPES-buffered Krebs-Ringer solution (Boston BioProducts) supplemented with 10 mM Glucose. Cells were incubated for 30 min, and the medium was collected and filtered through a 0.22 μm pore membrane. Lactate level in the medium was measured using Lactate Assay Kit (Sigma-Aldrich) as per manufacturer's instructions. Cell growth assays using crystal violet staining were performed to verify equal number of cells and no significant difference was found in 24 hrs of compound 1 treatment (data not shown).

breast cancer cells [2] = assay: Caspase 3/7 assay; type: cell-based, human; conditions: 50 μM, within 72 hrs
Method: Cells were cultured in 96-well plates (30,000 cells/well). After compound 1 treatment for 24-72 hrs, cellular apoptosis was analyzed using the Caspase-Glo 3/7 Assay kit (Promega) according to the manufacturer's instructions.

[3] = Maximum tolerated dose (MTD) test; type: in vivo; conditions: up to 20 mg/kg, 2 weeks, athymic nude mice
Text: Animal maintenance and experimental protocols are in accordance with the guidelines of the University of Maryland's Institutional Animal Care and Use Committee.

breast cancer cells [4] = assay: Cell growth assay (crystal violet); type: cell-based, human; conditions: for inhibition at 50 µM: Homo sapiens, 72 hrs
Text: Cells wereplated on 96-well (30,000 cells/well) or 24-well plates (50,000 cells/well). […] Cells were stained with crystal violet (0.5% in Methanol:Acetic Acid=3:1) and washed with PBS. Crystal violet was solubilized in DMSO and measured in a microplate reader at 592 nm.

O=C(O)C1C2C=CC(C2)C1C(=O)Nc1ccc(Cl)c(Cl)c1 (centres unmarked) [compound 1, 3-(N-(3,4-dichlorophenyl)carbamoyl)-5-norbornene-2-carboxylic acid]
sensitivity of non-malignant cells versus BC cell lines [1]: much lower
reduction in nuclear TAZ levels compared to vehicle (TAZ; HCC1428 cells expressing endogenous RUNX2): 80%
nuclear TAZ levels (TAZ; RUNX2 negative cells (doxycycline +), over 72 hr): no affect
TAZ nuclear levels (TAZ; RUNX2 positive MCF7 cells (doxycycline -), 50 μM, within 24 hr): lowered
decrease in sE-Cad production (sE-Cad; RUNX2 negative cells (doxycycline+)): 2 fold
decline of sE-Cad levels (sE-Cad; RUNX2 positive cells, 50 μM, by 72 hr): ~20 fold
increase of sE-Cad production (sE-Cad; RUNX2 positive cells, 50 μM, first 24 hr): 3.5 fold
lactate concentration (BC cells; 50 μM): significantly reduced
glucose consumption (BC cells; MDA-231 cells): Slight but insignificant inhibition
glucose level in the medium (BC cells; RUNX2-expressing MCF7 and T47D, MCF7 and MDA-468 cells, 6 hrs and 24 hrs): increased
caspase-3/7 activity compared to vehicle controls (breast cancer cells [2]): no change
influence on body weight or general health [3]: no detectable influence
inhibition in cell viability (breast cancer cells [4]; 0˜100 μM, over 24 hrs): no significant inhibition
cell growth inhibition (breast cancer cells [4]; 0˜100 μM, over 72 hrs): dose- and time-dependent cell growth inhibition
inhibition at 50 µM (breast cancer cells [4]; MDA-MB-468 cells): > 50%
inhibition at 50 µM (breast cancer cells [4]; majority of TNBC and luminal type BC cells): < 50%
cell proliferation relative to vehicle controls (breast cancer cells [4]; ectopic RUNX2-expressing MCF7 and T47D cells, 7 days): dramatic decrease
